Measured values as given in patent publication US20020115703A1, “Prevention of development of dyskinesias” (priority 2000, published 2002).

Test system: locomotor hyperactivity induced by repeated administration of D-amphetamine
Assay: Locomotor (ambulatory) activity after repeated D-amphetamine administration (behavioral sensitization), photobeam activity system
Format: in vivo, mice
Procedure: The effects of atipamezole on the locomotor hyperactivity induced by repeated administration of D-amphetamine were studied in male mice.
Experiments were performed with C57BL/ 6J strain male mice from Jackson Laboratories. Mice were transferred to the laboratory at least 2 weeks prior to use. The mice were from 8 to 20 weeks of age at the beginning of an experiment. Groups of 10 mice were housed in standard polypropylene cages (38×22×15 cm) with free access to standard certified pelleted food (RM1 Maintenance Expanded SQC; Special Diet Services, Essex, UK) and water. Ambient temperature was 22±1 C.°, and a 12:12 h light dark cycle was maintained with lights on at 6 A.M. All experiments were carried out between 7 A.M. 1 and 5 P.M. The animal care was performed in accordance with International Council for Laboratory Animal Science (ICLAS) guidelines.
D-Amphetamine sulphate (Sigma, St. Louis, Mo., U.S.A.) and atipamezole HCl (Orion Corporation, Orion Pharma, Turku, Finland) were dissolved in saline (0.9% NaCl) and administered subcutaneously (s.c.) in a 5 ml kg volume.
The locomotor activity of the mice was measured in transparent standard polypropylene animal cages (38×22×15 cm) with transparent covers and aspen bedding on the floors. Test cages were placed in the middle of the photobeam frame system (Photobeam Activity System PAS, Cage Rack, San Diego Instruments, San Diego, Calif.). A computer control unit registered the interruptions of photobeams from 16 individual cages. Three different types of movements were monitored: 1) ambulations (large horizontal movements), 2) fine movements (smaller horizontal movements), and 3) rearings (vertical movements). Locomotor activity was measured at 5-min intervals for 2 h immediately after D-amphetamine or saline administrations.
D-amphetamine was administered subcutaneously (s.c.) at a dose of 2 mg/kg. Atipamezole was administered s.c. at a dose of 1 mg/kg 20 min before locomotor activity measurement.
In the chronic treatment group, mice were administered the dose during eight days to elicit provoked locomotor hyperactivity to D-amphetamine and the effect of the atipamezole to the locomotor activity. Mice groups in the chronic treatment schedule were saline, saline-amphetamine, amphetamine, atipamezole and atipamezole-amphetamine. A day before experiment, mice were habituated to the test environment. Test groups with different drug treatments were administrated during four consecutive days. At days five and six, there were no drug administrations nor motor activity testing. At days seven and eight, the produced locomotor hyperactivity and effect of a single exposure of D-amphetamine (saline-amphetamine-group) were analysed. (Table 1).
At day nine, the effect of different atipamezole and amphetamine administrations to the locomotor activity on the chronic treatment groups were analysed. Treatments included saline, 1 mg/kg atipamezole, 2 mg/kg D-amphetamine, 0,3 mg/kg atipamezole- 2 mg/kg D-amphetamine and 1 mg/kg atipamezole- 2 mg/kg D-amphetamine. Chronic treatment groups were saline-, atipamezole-, amphetamine- and atipamezole-amphetamine groups. Chronic groups were treated following the schedule in Table 2.
All data are presented as mean ±SEM. Statistical analysis were performed using SPSS 9.0 for Windows (SPSS, Chicago, Ill.). Separate repeated measure analyses of variance (ANOVA) were performed on each variable for each experiment grouped on time and treatment group. Results were analysed separately, because data were collected in separate experiments with different study design. When significance (P<0.05) between treatment groups was found, comparisons at each time point (date or min) were analysed by using LSD post-hoc test.

Row | SMILES | ambulatory activity (2-h overall counts) during repeated administration (D-amphetamine 2 mg/kg s.c., six repeated administrations over days 1-8, compared to saline group, C57BL/6J male mice, FIG. 1) | ambulatory sensitization at Day 9 (chronic amphetamine group, repeated D-amphetamine 2 mg/kg (P<0.001), FIG. 2) | locomotor activity at Day 9, single D-amphetamine challenge (chronic saline group, D-amphetamine 2 mg/kg at Day 9 (P<0.001 vs saline), FIG. 2) | D-amphetamine induced locomotion at Day 9, chronic atipamezole-amphetamine group (atipamezole 1 mg/kg 20 min before D-amphetamine 2 mg/kg days 1-9, vs amphetamine-amphetamine group (P<0.001), FIG. 2) | D-amphetamine-induced locomotion, chronic atipamezole pre-treatment (atipamezole 1 mg/kg s.c. 20 min before D-amphetamine 2 mg/kg s.c. over days 1-8, vs amphetamine-amphetamine group, Day 2 P<0.05, Days 3-8 P<0.001, FIG. 1) | locomotor activity, atipamezole pre-treatment before saline challenge (atipamezole 1 mg/kg s.c. daily for six days, atipamezole-saline vs saline group at Day 8 (P=0.43), FIG. 1) | D-amphetamine-induced locomotor hyperactivity at Day 9 (expression of sensitization) (chronic amphetamine group, atipamezole 0.3 mg/kg 20 min before D-amphetamine 2 mg/kg at Day 9 (P=0.005), FIG. 2) | D-amphetamine-induced locomotor hyperactivity at Day 9 (expression of sensitization) (chronic amphetamine group, atipamezole 1 mg/kg 20 min before D-amphetamine 2 mg/kg at Day 9 (P<0.001), FIG. 2) | locomotor activity at Day 9 after chronic atipamezole (chronic atipamezole group (1 mg/kg days 1-8), before saline and D-amphetamine challenge at Day 9, FIG. 2) | development of sensitisation: locomotion at Day 9 with D-amphetamine only (chronic atipamezole-amphetamine group given only D-amphetamine 2 mg/kg at Day 9, vs amphetamine-amphetamine group (P=0.026), FIG. 2) | locomotor activity at Day 9, atipamezole before acute D-amphetamine (chronic saline group, atipamezole 0.3 mg/kg 20 min before D-amphetamine 2 mg/kg, compared to D-amphetamine alone (P=0.016), FIG. 2) | locomotor activity at Day 9, atipamezole before acute D-amphetamine (chronic saline group, atipamezole 1 mg/kg 20 min before D-amphetamine 2 mg/kg, compared to D-amphetamine alone (P=0.364), FIG. 2) | total ambulatory activity counts at Day 9, atipamezole alone (chronic saline group, atipamezole 1 mg/kg 20 min before saline at Day 9 (P=0.81), FIG. 2) | development and expression of sensitization (motor overactivity), overall finding (given chronically in combination with D-amphetamine, in mice)
1 | C[C@H](N)Cc1ccccc1 [D-amphetamine] | progressive enhance in ambulatory activity | developed strong ambulatory sensitization | significantly enhanced locomotor activity |  |  |  |  |  |  |  |  |  |  | 
2 | CCC1(c2cnc[nH]2)Cc2ccccc2C1 [atipamezole, 4-(2-ethyl-2,3-dihydro-1H-inden-2-y1)-1H-imidazole] |  |  |  | decreased significantly D-amphetamine induced locomotion | decreased significantly D-amphetamine-induced locomotion | not a statistically significant difference | clearly attenuated the D-amphetamine-induced locomotor hyperactivity | clearly attenuated the D-amphetamine-induced locomotor hyperactivity | the elevation was not statistically significant | true reduction in the development of sensitisation | amplified locomotor activity | had no effect | did not alter total ambulatory activity counts | reduces the development and expression of sensitization
